19 compounds from ChEMBL document CHEMBL5291721, “A preclinical secondary pharmacology resource illuminates target-adverse drug reaction associations of marketed drugs” (Nat Commun, 2023) can be followed below.

The target of assay [1] is T1, Muscarinic acetylcholine receptor M1 (Homo sapiens, UniProt P11229).
T1 sequence (P11229 whole entry): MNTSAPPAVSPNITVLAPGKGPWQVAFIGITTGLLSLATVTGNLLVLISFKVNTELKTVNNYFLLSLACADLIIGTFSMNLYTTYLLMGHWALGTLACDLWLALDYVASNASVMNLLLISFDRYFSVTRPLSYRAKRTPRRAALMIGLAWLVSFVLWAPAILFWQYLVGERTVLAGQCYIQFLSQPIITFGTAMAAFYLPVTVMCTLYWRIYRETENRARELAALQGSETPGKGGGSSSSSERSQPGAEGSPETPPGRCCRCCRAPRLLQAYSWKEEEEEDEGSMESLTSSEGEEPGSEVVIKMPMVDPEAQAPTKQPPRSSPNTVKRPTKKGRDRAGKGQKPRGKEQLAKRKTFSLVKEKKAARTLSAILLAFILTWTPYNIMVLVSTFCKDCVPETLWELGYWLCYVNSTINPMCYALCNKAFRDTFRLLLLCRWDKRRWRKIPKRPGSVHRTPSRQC
The format is functional, cell-based.

In assay [2] the target is T2, D(1A) dopamine receptor (Homo sapiens, UniProt P21728).
Assay [3] addresses T3, Alpha-2A adrenergic receptor (Homo sapiens, UniProt P08913).
T3 sequence (P08913 whole entry): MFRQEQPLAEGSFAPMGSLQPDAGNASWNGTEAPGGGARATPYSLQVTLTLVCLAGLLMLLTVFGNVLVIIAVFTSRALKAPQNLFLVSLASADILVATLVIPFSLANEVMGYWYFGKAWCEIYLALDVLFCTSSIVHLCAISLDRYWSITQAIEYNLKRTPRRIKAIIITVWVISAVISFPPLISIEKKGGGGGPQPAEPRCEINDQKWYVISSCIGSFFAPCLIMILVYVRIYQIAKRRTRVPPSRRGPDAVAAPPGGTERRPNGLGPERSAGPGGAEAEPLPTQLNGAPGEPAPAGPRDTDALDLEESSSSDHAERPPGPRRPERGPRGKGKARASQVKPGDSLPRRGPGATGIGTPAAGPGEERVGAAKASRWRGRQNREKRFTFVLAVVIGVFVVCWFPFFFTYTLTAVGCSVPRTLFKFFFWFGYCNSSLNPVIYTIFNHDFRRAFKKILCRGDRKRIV

Assay [4] has as its target T4, Endothelin-1 receptor (Homo sapiens, UniProt P25101).
T4 sequence (P25101 whole entry): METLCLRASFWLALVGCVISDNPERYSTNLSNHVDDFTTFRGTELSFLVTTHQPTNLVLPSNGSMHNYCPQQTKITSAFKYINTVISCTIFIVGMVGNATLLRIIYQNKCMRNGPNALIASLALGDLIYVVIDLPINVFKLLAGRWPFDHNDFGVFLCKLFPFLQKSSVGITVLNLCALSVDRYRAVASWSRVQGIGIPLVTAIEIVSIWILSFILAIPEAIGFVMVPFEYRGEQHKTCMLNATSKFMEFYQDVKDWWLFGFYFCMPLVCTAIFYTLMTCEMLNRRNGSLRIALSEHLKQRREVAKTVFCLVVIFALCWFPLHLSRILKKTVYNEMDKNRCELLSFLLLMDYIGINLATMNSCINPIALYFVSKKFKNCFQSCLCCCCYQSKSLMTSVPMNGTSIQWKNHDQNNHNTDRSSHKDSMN

The target of assay [5] is Sodium-dependent dopamine transporter (Homo sapiens, UniProt Q01959).
The target of assay [6] is T5, Alpha-2C adrenergic receptor (Homo sapiens, UniProt P18825).
T5 sequence (P18825 whole entry): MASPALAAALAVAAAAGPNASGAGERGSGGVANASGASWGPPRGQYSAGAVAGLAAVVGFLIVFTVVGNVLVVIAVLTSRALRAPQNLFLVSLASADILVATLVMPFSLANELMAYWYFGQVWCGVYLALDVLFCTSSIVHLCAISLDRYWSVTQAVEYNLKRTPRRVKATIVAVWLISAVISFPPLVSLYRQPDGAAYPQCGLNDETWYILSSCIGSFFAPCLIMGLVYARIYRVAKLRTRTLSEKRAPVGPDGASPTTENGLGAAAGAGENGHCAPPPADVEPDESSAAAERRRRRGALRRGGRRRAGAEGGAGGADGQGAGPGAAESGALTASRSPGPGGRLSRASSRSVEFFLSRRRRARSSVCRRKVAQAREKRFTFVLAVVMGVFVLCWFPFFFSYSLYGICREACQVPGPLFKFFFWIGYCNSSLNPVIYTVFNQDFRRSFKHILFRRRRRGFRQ
The class given is functional.

In assay [7] the target is T2, D(1A) dopamine receptor. The class given is functional, cell-based.

Each structure is given as a SMILES string. Where only a bound is given, the exact number is not on record here.
Also: assay procedure not described here.

T2 sequence (P21728 whole entry): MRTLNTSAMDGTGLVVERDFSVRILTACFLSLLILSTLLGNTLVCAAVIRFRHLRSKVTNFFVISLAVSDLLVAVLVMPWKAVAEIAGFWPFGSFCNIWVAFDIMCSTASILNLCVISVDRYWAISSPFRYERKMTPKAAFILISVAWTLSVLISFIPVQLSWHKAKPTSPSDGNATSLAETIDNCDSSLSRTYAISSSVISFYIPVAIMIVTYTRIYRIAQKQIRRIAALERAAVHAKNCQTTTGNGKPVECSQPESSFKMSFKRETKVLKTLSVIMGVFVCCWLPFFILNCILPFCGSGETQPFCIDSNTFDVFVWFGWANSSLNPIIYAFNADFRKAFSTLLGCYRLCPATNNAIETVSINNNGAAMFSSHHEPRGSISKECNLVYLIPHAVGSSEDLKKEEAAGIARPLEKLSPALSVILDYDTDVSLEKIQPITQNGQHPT
Chain of Sodium-dependent dopamine transporter (Q01959 whole entry): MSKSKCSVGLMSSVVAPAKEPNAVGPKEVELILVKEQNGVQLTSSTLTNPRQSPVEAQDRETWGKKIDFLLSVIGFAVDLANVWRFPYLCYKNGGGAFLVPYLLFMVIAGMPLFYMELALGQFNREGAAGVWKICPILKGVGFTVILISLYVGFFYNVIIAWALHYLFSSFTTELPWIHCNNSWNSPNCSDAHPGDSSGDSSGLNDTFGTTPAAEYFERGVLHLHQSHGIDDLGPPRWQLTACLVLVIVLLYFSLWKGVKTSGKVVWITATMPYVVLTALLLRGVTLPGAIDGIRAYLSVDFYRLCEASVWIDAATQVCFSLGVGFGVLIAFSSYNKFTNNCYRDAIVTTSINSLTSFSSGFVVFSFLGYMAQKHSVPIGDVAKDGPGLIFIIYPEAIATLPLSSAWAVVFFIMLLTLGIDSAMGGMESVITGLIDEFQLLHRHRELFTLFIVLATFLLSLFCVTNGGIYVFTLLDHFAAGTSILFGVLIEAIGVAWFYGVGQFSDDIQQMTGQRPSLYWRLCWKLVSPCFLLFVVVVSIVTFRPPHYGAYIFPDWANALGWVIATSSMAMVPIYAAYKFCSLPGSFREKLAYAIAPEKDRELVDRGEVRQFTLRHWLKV

Regarding `NC(=O)C1(N2CCCCC2)CCN(CCCC(=O)c2ccc(F)cc2)CC1` [PIPAMPERONE], the AC50 was above 30 µM in assay [1], 0.258 µM in assay [2] and 5.47 µM in assay [3].

Consider `COc1cccc2c1C(=O)c1c(O)c3c(c(O)c1C2=O)C[C@@](O)(C(=O)CO)C[C@@H]3O[C@H]1C[C@H](N)[C@H](O[C@@H]2CCCCO2)[C@H](C)O1` [PIRARUBICIN], for which the AC50 in assay [1] was above 10 µM; in assay [2], above 30 µM; in assay [3], above 30 µM.

For `CCCCCCCCCCCCCCCC(=O)OC[C@H](COP(=O)([O-])OCC[N+](C)(C)C)OC(=O)CCCCCCCCCCCCCCC` [COLFOSCERIL PALMITATE], the AC50 in assay [1], in assay [2] and in assay [3] was above 30 µM in each case.

Take `N=C(N)NCC1COc2ccccc2O1` (configuration not stated) [GUANOXAN]: the AC50 in assay [1] was above 30 µM; in assay [2], 23.4 µM; in assay [3], 0.15 µM.

Turning to `Cc1cccc(C)c1NC(=O)c1cc(S(N)(=O)=O)c(Cl)cc1O` [XIPAMIDE], the AC50 in assay [1], in assay [2] and in assay [3] was above 30 µM each time.

Take `O=c1[nH]cc(F)c(=O)[nH]1` [FLUOROURACIL]: the AC50 in assay [4], in assay [5] and in assay [3] was above 30 µM in each case.

Take `CO[C@@]1(NC(=O)C(C(=O)O)c2ccc(O)cc2)C(=O)N2C(C(=O)O)=C(CSc3nnnn3C)CO[C@@H]21` (some centres not stated) [MOXALACTAM]: the AC50 in assay [1], in assay [2] and in assay [3] was above 30 µM throughout.

Regarding `CC#CC(=O)N1CCC[C@H]1c1nc(-c2ccc(C(=O)Nc3ccccn3)cc2)c2c(N)nccn12` [ACALABRUTINIB], the AC50 in assay [1], in assay [2] and in assay [3] was above 30 µM in each case.

As to `C#CCN(C)Cc1ccccc1` [PARGYLINE], the AC50 in assay [6], in assay [2], in assay [7] and in assay [3] was above 30 µM throughout.

Turning to `CC(C)(Oc1ccc(Cl)cc1)C(=O)NC(=O)NCN1CCOCC1` [PLAFIBRIDE], the concentration at half-maximal activity (AC50) in assay [1], in assay [2] and in assay [3] was above 30 µM in each case.

On to `O=C(Cc1cccs1)N[C@@H]1C(=O)N2C(C(=O)[O-])=C(C[n+]3ccccc3)CS[C@H]12` [CEPHALORIDINE], for which the AC50 in assay [6], in assay [2], in assay [7] and in assay [3] was above 30 µM throughout.

On to `CNC1(c2ccccc2Cl)CCCCC1=O` (configuration not stated) [KETAMINE], for which the AC50 in assay [2] and in assay [3] was above 30 µM each time.

For `NC(=O)C1(N2CCCCC2)CCN(CCCN2c3ccccc3CCc3ccccc32)CC1` [CARPIPRAMINE], the AC50 stood at 0.0928 µM in assay [2] and 0.208 µM in assay [3].

In the case of `CC(C)Nc1cccnc1N1CCN(C(=O)c2cc3cc(NS(C)(=O)=O)ccc3[nH]2)CC1` [DELAVIRDINE], the AC50 in assay [1] was 16.4 µM; in assay [2] it was above 30 µM; in assay [3], 13.4 µM.

Take `CN1CCC(N(Cc2cccs2)c2ccccc2)CC1` [THENALIDINE]: the AC50 was found to be 0.762 µM in assay [1], 11.6 µM in assay [2] and 8.45 µM in assay [3].

Regarding `O=C(O)[C@H](O)[C@@H](O)[C@H](O)[C@H](O)CO` [GLUCONIC ACID], the AC50 in assay [1], in assay [2] and in assay [3] was above 30 µM throughout.

Consider `CC(C)NC[C@H](O)COc1ccc(O)cc1` [PRENALTEROL], for which the AC50 in assay [1], in assay [2] and in assay [3] was above 30 µM each time.

`C[C@]12CC[C@@H]3c4ccc(OC(=O)N(CCCl)CCCl)cc4CC[C@H]3[C@@H]1CC[C@@H]2OP(=O)(O)O` [ESTRAMUSTINE PHOSPHATE]: the values for the AC50 in assay [1], in assay [2] and in assay [3] were above 30 µM, 25.4 µM and above 30 µM, respectively.

Consider `C[C@@H](CN1CC(=O)NC(=O)C1)N1CC(=O)NC(=O)C1` [DEXRAZOXANE], for which the AC50 in assay [1], in assay [2] and in assay [3] was above 30 µM each time.

In general, AC50 refers to the midpoint of the concentration-response curve, whichever way the signal moves. Low values mean activity at low concentration, high ones activity only at high concentration.
